The source made the active and inactive calls. How the calls were made is not given here.
Tested on: CCRIS mutagenicity, Ames/micronucleus/aberration tests
Experiment: CCRIS mutagenicity studies
[1] = Test System: AMES SALMONELLA TYPHIMURIUM, Strain/Indicator: TA98, Metabolic Activation: NONE, Method: STANDARD PLATE
[2] = Test System: AMES SALMONELLA TYPHIMURIUM, Strain/Indicator: TA98, Metabolic Activation: RAT, LIVER, S-9, AROCLOR 1254, Method: STANDARD PLATE
[3] = Test System: AMES SALMONELLA TYPHIMURIUM, Strain/Indicator: TA100, Metabolic Activation: NONE, Method: STANDARD PLATE
[4] = Test System: AMES SALMONELLA TYPHIMURIUM, Strain/Indicator: TA100, Metabolic Activation: RAT, LIVER, S-9, AROCLOR 1254, Method: STANDARD PLATE
[5] = Test System: AMES SALMONELLA TYPHIMURIUM, Strain/Indicator: TA1535, Metabolic Activation: NONE, Method: STANDARD PLATE
[6] = Test System: AMES SALMONELLA TYPHIMURIUM, Strain/Indicator: TA1535, Metabolic Activation: RAT, LIVER, S-9, AROCLOR 1254, Method: STANDARD PLATE
[7] = Test System: AMES SALMONELLA TYPHIMURIUM, Strain/Indicator: TA1537, Metabolic Activation: NONE, Method: STANDARD PLATE
[8] = Test System: AMES SALMONELLA TYPHIMURIUM, Strain/Indicator: TA1537, Metabolic Activation: RAT, LIVER, S-9, AROCLOR 1254, Method: STANDARD PLATE
[9] = Test System: AMES SALMONELLA TYPHIMURIUM, Strain/Indicator: TA1538, Metabolic Activation: NONE, Method: STANDARD PLATE
[10] = Test System: AMES SALMONELLA TYPHIMURIUM, Strain/Indicator: TA1538, Metabolic Activation: RAT, LIVER, S-9, AROCLOR 1254, Method: STANDARD PLATE
[11] = Test System: Ames Salmonella typhimurium, Strain/Indicator: TA98, Metabolic Activation: None, Method: Preincubation
[12] = Test System: Ames Salmonella typhimurium, Strain/Indicator: TA100, Metabolic Activation: None, Method: Preincubation
[13] = Test System: Ames Salmonella typhimurium, Strain/Indicator: TA1535, Metabolic Activation: None, Method: Preincubation

Nc1ccccc1[N+](=O)[O-]
mutagenic call (End Point: IN VITRO CHROMOSOMAL ABERRATIONS, Test System: CHL CELLS, Metabolic Activation: RAT, LIVER, S-9, SODIUM PHENOBARBITAL AND 5,6-BENZOFLAVONE): active; positive (structural changes) | mutagenic call (End Point: IN VITRO MICRONUCLEUS, Test System: CHL/IU CELLS, Metabolic Activation: NONE): inactive; negative | mutagenic call (Test System: AMES SALMONELLA TYPHIMURIUM, Strain/Indicator: TA97, Metabolic Activation: NONE): inactive; negative | mutagenic call (Test System: AMES SALMONELLA TYPHIMURIUM, Strain/Indicator: TA97, Metabolic Activation: RAT, LIVER, S-9, AROCLOR 1254): inactive; negative | mutagenic call (Test System: AMES SALMONELLA TYPHIMURIUM, Strain/Indicator: TA98, Metabolic Activation: HAMSTER, LIVER, S-9, AROCLOR 1254, FLAVIN MONONUCLEOTIDE, Method: PREINCUBATION): active; positive | mutagenic call (Test System: AMES SALMONELLA TYPHIMURIUM, Strain/Indicator: TA98, Metabolic Activation: HAMSTER, LIVER, S-9, AROCLOR 1254, Method: PREINCUBATION): inactive; negative | mutagenic call (Test System: AMES SALMONELLA TYPHIMURIUM, Strain/Indicator: TA98, Metabolic Activation: NONE): inactive; negative | mutagenic call (Test System: AMES SALMONELLA TYPHIMURIUM, Strain/Indicator: TA98, Metabolic Activation: NONE, Method: PREINCUBATION): inactive; negative | mutagenic call [1]: inactive; negative | mutagenic call (Test System: AMES SALMONELLA TYPHIMURIUM, Strain/Indicator: TA98, Metabolic Activation: RAT, LIVER, S-9, AROCLOR 1254): inactive; negative | mutagenic call (Test System: AMES SALMONELLA TYPHIMURIUM, Strain/Indicator: TA98, Metabolic Activation: RAT, LIVER, S-9, AROCLOR 1254, FLAVIN MONONUCLEOTIDE, Method: PREINCUBATION): inactive; negative | mutagenic call [2]: inactive; negative | mutagenic call (Test System: AMES SALMONELLA TYPHIMURIUM, Strain/Indicator: TA98, Metabolic Activation: RAT, LIVER, S-9, KANECHLOR 500, Method: PREINCUBATION): inactive; negative | mutagenic call (Test System: AMES SALMONELLA TYPHIMURIUM, Strain/Indicator: TA98, Method: PREINCUBATION): inactive; negative | mutagenic call (Test System: AMES SALMONELLA TYPHIMURIUM, Strain/Indicator: TA100, Metabolic Activation: NONE): inactive; negative | mutagenic call (Test System: AMES SALMONELLA TYPHIMURIUM, Strain/Indicator: TA100, Metabolic Activation: NONE, Method: PREINCUBATION): inactive; negative | mutagenic call [3]: inactive; negative | mutagenic call (Test System: AMES SALMONELLA TYPHIMURIUM, Strain/Indicator: TA100, Metabolic Activation: RAT, LIVER, S-9, AROCLOR 1254): inactive; negative | mutagenic call [4]: inactive; negative | mutagenic call (Test System: AMES SALMONELLA TYPHIMURIUM, Strain/Indicator: TA100, Metabolic Activation: RAT, LIVER, S-9, KANECHLOR 500, Method: PREINCUBATION): inactive; negative | mutagenic call (Test System: AMES SALMONELLA TYPHIMURIUM, Strain/Indicator: TA100, Method: PREINCUBATION): inactive; negative | mutagenic call (Test System: AMES SALMONELLA TYPHIMURIUM, Strain/Indicator: TA102, Metabolic Activation: NONE): inactive; negative | mutagenic call (Test System: AMES SALMONELLA TYPHIMURIUM, Strain/Indicator: TA102, Metabolic Activation: RAT, LIVER, S-9, AROCLOR 1254): inactive; negative | mutagenic call (Test System: AMES SALMONELLA TYPHIMURIUM, Strain/Indicator: TA1535, Metabolic Activation: NONE, Method: PREINCUBATION): inactive; negative | mutagenic call [5]: inactive; negative | mutagenic call [6]: inactive; negative | mutagenic call (Test System: AMES SALMONELLA TYPHIMURIUM, Strain/Indicator: TA1535, Method: PREINCUBATION): inactive; negative | mutagenic call (Test System: AMES SALMONELLA TYPHIMURIUM, Strain/Indicator: TA1537, Metabolic Activation: NONE, Method: PREINCUBATION): inactive; negative | mutagenic call [7]: inactive; negative | mutagenic call [8]: inactive; negative | mutagenic call (Test System: AMES SALMONELLA TYPHIMURIUM, Strain/Indicator: TA1537, Method: PREINCUBATION): inactive; negative | mutagenic call (Test System: AMES SALMONELLA TYPHIMURIUM, Strain/Indicator: TA1538, Metabolic Activation: NONE, Method: PREINCUBATION): inactive; negative | mutagenic call [9]: inactive; negative | mutagenic call [10]: inactive; negative | mutagenic call (Test System: AMES SALMONELLA TYPHIMURIUM, Strain/Indicator: TA1538, Method: PREINCUBATION): inactive; negative | mutagenic call (Test System: UDS RODENT HEPATOCYTES, Strain/Indicator: THY INCORP (NON-S-PHASE), Metabolic Activation: NONE, Method: AUTORADIOGRAPHY): inactive; negative

CN(C)c1ccc(C(=C2C=CC(=[N+](C)C)C=C2)c2ccccc2Cl)cc1
mutagenic call [11]: inactive; negative | mutagenic call (Test System: Ames Salmonella typhimurium, Strain/Indicator: TA98, Metabolic Activation: Rat, Liver, S-9, Aroclor 1254, Method: Preincubation): inactive; negative | mutagenic call [12]: inactive; negative | mutagenic call (Test System: Ames Salmonella typhimurium, Strain/Indicator: TA100, Metabolic Activation: Rat, Liver, S-9, Aroclor 1254, Method: Preincubation): inactive; negative | mutagenic call (Test System: Ames Salmonella typhimurium, Strain/Indicator: TA102, Metabolic Activation: None, Method: Preincubation): inactive; negative | mutagenic call (Test System: Ames Salmonella typhimurium, Strain/Indicator: TA102, Metabolic Activation: Rat, Liver, S-9, Aroclor 1254, Method: Preincubation): inactive; negative | mutagenic call [13]: inactive; negative | mutagenic call (Test System: Ames Salmonella typhimurium, Strain/Indicator: TA1535, Metabolic Activation: Rat, Liver, S-9, Aroclor 1254, Method: Preincubation): inactive; negative

C1=CCCCC1
mutagenic call [1]: inactive; negative | mutagenic call (Test System: AMES SALMONELLA TYPHIMURIUM, Strain/Indicator: TA98, Metabolic Activation: RAT LIVER S-9, SOVOL, Method: STANDARD PLATE): inactive; negative | mutagenic call [3]: inactive; negative | mutagenic call (Test System: AMES SALMONELLA TYPHIMURIUM, Strain/Indicator: TA100, Metabolic Activation: RAT LIVER S-9, SOVOL, Method: STANDARD PLATE): inactive; negative | mutagenic call [11]: inactive; negative | mutagenic call (Test System: Ames Salmonella typhimurium, Strain/Indicator: TA98, Metabolic Activation: Rat, Liver, S9, Sodium phenobarbital and 5,6-benzoflavone (10%), Method: Preincubation): inactive; negative | mutagenic call [12]: inactive; negative | mutagenic call (Test System: Ames Salmonella typhimurium, Strain/Indicator: TA100, Metabolic Activation: Rat, Liver, S9, Sodium phenobarbital and 5,6-benzoflavone (10%), Method: Preincubation): inactive; negative | mutagenic call [13]: inactive; negative | mutagenic call (Test System: Ames Salmonella typhimurium, Strain/Indicator: TA1535, Metabolic Activation: Rat, Liver, S9, Sodium phenobarbital and 5,6-benzoflavone (10%), Method: Preincubation): inactive; negative | mutagenic call (Test System: Ames Salmonella typhimurium, Strain/Indicator: TA1537, Metabolic Activation: None, Method: Preincubation): inactive; negative | mutagenic call (Test System: Ames Salmonella typhimurium, Strain/Indicator: TA1537, Metabolic Activation: Rat, Liver, S9, Sodium phenobarbital and 5,6-benzoflavone (10%), Method: Preincubation): inactive; negative | mutagenic call (Test System: Ames Salmonella typhimurium, Strain/Indicator: TA2637, Metabolic Activation: None, Method: Preincubation): active; positive | mutagenic call (Test System: Ames Salmonella typhimurium, Strain/Indicator: TA2637, Metabolic Activation: Rat, Liver, S9, Sodium phenobarbital and 5,6-benzoflavone (10%), Method: Preincubation): inactive; negative | mutagenic call (Test System: E. coli, Strain/Indicator: WP2uvrA/pKM101, Metabolic Activation: None, Method: Preincubation): inactive; negative | mutagenic call (Test System: E. coli, Strain/Indicator: WP2uvrA/pKM101, Metabolic Activation: Rat, Liver, S9, Sodium phenobarbital and 5,6-benzoflavone (10%), Method: Preincubation): inactive; negative

COC(=O)c1ccc(O)cc1
mutagenic call [1]: inactive; negative | mutagenic call [2]: inactive; negative | mutagenic call [3]: inactive; negative | mutagenic call [4]: inactive; negative | mutagenic call [5]: inactive; negative | mutagenic call [6]: inactive; negative | mutagenic call [7]: inactive; negative | mutagenic call [8]: inactive; negative | mutagenic call [9]: inactive; negative | mutagenic call [10]: inactive; negative | mutagenic call (Test System: E. COLI, Strain/Indicator: WP2, Metabolic Activation: NONE, Method: STANDARD PLATE): inactive; negative | mutagenic call (Test System: E. COLI, Strain/Indicator: WP2, Metabolic Activation: RAT, LIVER, S-9, AROCLOR 1254, Method: STANDARD PLATE): inactive; negative
